Tests used:
Nucleic Acid = settings: Homo sapiens
Description: Binding affinity to human G-quadruplex DNA assessed as change in melting temperature by FRET-melting assay

OVCAR-4 = assay: cells; settings: Homo sapiens
Description: Anticancer activity against human OVCAR4 cells

IGROV-1 = assay: cells; settings: Homo sapiens
Description: Anticancer activity against human IGROV1 cells

UACC-62 = assay: cells; settings: Homo sapiens
Description: Anticancer activity against human UACC62 cells

M14 = assay: cells; settings: Homo sapiens
Description: Anticancer activity against human M14 cells

LOX IMVI = assay: cells; settings: Homo sapiens
Description: Anticancer activity against human LOXIMVI cells

U-251 = assay: cells; settings: Homo sapiens
Description: Anticancer activity against human U251 cells

SNB-75 = assay: cells; settings: Homo sapiens
Description: Anticancer activity against human SNB75 cells

SF-539 = assay: cells; settings: Homo sapiens
Description: Anticancer activity against human SF539 cells

SF-295 = assay: cells; settings: Homo sapiens
Description: Anticancer activity against human SF295 cells

SF-268 = assay: cells; settings: Homo sapiens
Description: Anticancer activity against human SF268 cells

HT-29 = assay: cells; settings: Homo sapiens
Description: Anticancer activity against human HT-29 cells

HCT-116 = assay: cells; settings: Homo sapiens
Description: Anticancer activity against human HCT116 cells

COLO 205 = assay: cells; settings: Homo sapiens
Description: Anticancer activity against human COLO205 cells

NCI-H460 = assay: cells; settings: Homo sapiens
Description: Anticancer activity against human NCI-H460 cells

NCI-H226 = assay: cells; settings: Homo sapiens
Description: Anticancer activity against human NCI-H226 cells

EKVX = assay: cells; settings: Homo sapiens
Description: Anticancer activity against human EKVX cells

A549 = assay: cells; settings: Homo sapiens
Description: Anticancer activity against human A549 cells

SR = assay: cells; settings: Homo sapiens
Description: Anticancer activity against human SR cells

cells [1] = settings: Homo sapiens
Description: Anticancer activity against human RPMI8266 cells

CCRF-CEM = assay: cells; settings: Homo sapiens
Description: Anticancer activity against human CCRF-CEM cells

MDA-MB-468 = assay: cells; settings: Homo sapiens
Description: Anticancer activity against human MDA-MB-468 cells

MDA-MB-435 = assay: cells; settings: Homo sapiens
Description: Anticancer activity against human MDA-MB-435 cells

cells [2] = settings: Homo sapiens, Hs-578T
Description: Anticancer activity against human Hs 578T cells

NCI/ADR-RES = assay: cells; settings: Homo sapiens
Description: Anticancer activity against human NCI/ADR-RES cells

TK-10 = assay: cells; settings: Homo sapiens
Description: Anticancer activity against human TK10 cells

RXF 393 = assay: cells; settings: Homo sapiens
Description: Anticancer activity against human RXF393 cells

A498 = assay: cells; settings: Homo sapiens
Description: Anticancer activity against human A498 cells

786-0 = assay: cells; settings: Homo sapiens
Description: Anticancer activity against human 786-0 cells

Description for physchem: Dissociation constant, pKa of the compound by UV-visible spectroscopy

SMILES: C[n+]1c2ccccc2c(Nc2ccc(N3CCCCC3)cc2)c2[nH]c3ccccc3c21.[Cl-]
- ΔTm (Nucleic Acid): 4.2 °C
- GI50 (OVCAR-4; OVCAR-4, read-out: pGI50 (converted)): 0.363 µM
- CC50 (OVCAR-4; OVCAR-4, read-out: pLC50 (converted)): 3.98 µM
- TGI (OVCAR-4; OVCAR-4, read-out: pTGI): 1.35 µM
- GI50 (IGROV-1; IGROV-1, read-out: pGI50 (converted)): 0.229 µM
- CC50 (IGROV-1; IGROV-1, read-out: pLC50 (converted)): 3.47 µM
- TGI (IGROV-1; IGROV-1, read-out: pTGI): 1.17 µM
- GI50 (UACC-62; UACC-62, read-out: pGI50 (converted)): 0.427 µM
- TGI (UACC-62; UACC-62, read-out: pTGI): 1.91 µM
- GI50 (M14; M14, read-out: pGI50 (converted)): 0.389 µM
- CC50 (M14; M14, read-out: pLC50 (converted)): 4.07 µM
- TGI (M14; M14, read-out: pTGI): 1.45 µM
- GI50 (LOX IMVI; read-out: pGI50 (converted)): 0.148 µM
- CC50 (LOX IMVI; read-out: pLC50 (converted)): 1.45 µM
- TGI (LOX IMVI; read-out: pTGI): 0.398 µM
- GI50 (U-251; U-251, read-out: pGI50 (converted)): 0.288 µM
- CC50 (U-251; U-251, read-out: pLC50 (converted)): 3.63 µM
- TGI (U-251; U-251, read-out: pTGI): 1.23 µM
- GI50 (SNB-75; SNB-75, read-out: pGI50 (converted)): 0.692 µM
- CC50 (SNB-75; SNB-75, read-out: pLC50 (converted)): 4.47 µM
- TGI (SNB-75; SNB-75, read-out: pTGI): 2 µM
- GI50 (SF-539; SF-539, read-out: pGI50 (converted)): 0.646 µM
- CC50 (SF-539; SF-539, read-out: pLC50 (converted)): 4.47 µM
- TGI (SF-539; SF-539, read-out: pTGI): 1.95 µM
- GI50 (SF-295; SF-295, read-out: pGI50 (converted)): 0.398 µM
- CC50 (SF-295; SF-295, read-out: pLC50 (converted)): 4.37 µM
- TGI (SF-295; SF-295, read-out: pTGI): 1.58 µM
- GI50 (SF-268; SF-268, read-out: pGI50 (converted)): 0.676 µM
- CC50 (SF-268; SF-268, read-out: pLC50 (converted)): 6.03 µM
- TGI (SF-268; SF-268, read-out: pTGI): 2.19 µM
- GI50 (HT-29; HT-29, read-out: pGI50 (converted)): 0.178 µM
- CC50 (HT-29; HT-29, read-out: pLC50 (converted)): 2.14 µM
- TGI (HT-29; HT-29, read-out: pTGI): 0.55 µM
- GI50 (HCT-116; HCT-116, read-out: pGI50 (converted)): 0.132 µM
- CC50 (HCT-116; HCT-116, read-out: pLC50 (converted)): 100 µM
- TGI (HCT-116; HCT-116, read-out: pTGI): 0.363 µM
- GI50 (COLO 205; COLO 205, read-out: pGI50 (converted)): 0.141 µM
- CC50 (COLO 205; COLO 205, read-out: pLC50 (converted)): 0.851 µM
- TGI (COLO 205; COLO 205, read-out: pTGI): 0.347 µM
- GI50 (NCI-H460; NCI-H460, read-out: pGI50 (converted)): 0.145 µM
- CC50 (NCI-H460; NCI-H460, read-out: pLC50 (converted)): 2.29 µM
- TGI (NCI-H460; NCI-H460, read-out: pTGI): 0.468 µM
- GI50 (NCI-H226; NCI-H226, read-out: pGI50 (converted)): 0.269 µM
- TGI (NCI-H226; NCI-H226, read-out: pTGI): 1.86 µM
- GI50 (EKVX; read-out: pGI50 (converted)): 0.427 µM
- CC50 (EKVX; read-out: pLC50 (converted)): 4.68 µM
- TGI (EKVX; read-out: pTGI): 1.86 µM
- GI50 (A549; A549, read-out: pGI50 (converted)): 0.162 µM
- CC50 (A549; A549, read-out: pLC50 (converted)): > 100 µM
- TGI (A549; A549, read-out: pTGI): 0.589 µM
- GI50 (SR; read-out: pGI50 (converted)): 3.8 µM
- CC50 (SR; read-out: pLC50 (converted)): > 100 µM
- TGI (SR; read-out: pTGI): > 100 µM
- GI50 (cells [1]; RPMI8266, read-out: pGI50 (converted)): 0.158 µM
- CC50 (cells [1]; RPMI8266, read-out: pLC50 (converted)): 1 µM
- TGI (cells [1]; RPMI8266, read-out: pTGI): 0.398 µM
- GI50 (CCRF-CEM; read-out: pGI50 (converted)): 0.162 µM
- CC50 (CCRF-CEM; read-out: pLC50 (converted)): 2 µM
- TGI (CCRF-CEM; read-out: pTGI): 0.427 µM
- GI50 (MDA-MB-468; MDA-MB-468, read-out: pGI50 (converted)): 0.135 µM
- CC50 (MDA-MB-468; MDA-MB-468, read-out: pLC50 (converted)): 0.891 µM
- TGI (MDA-MB-468; MDA-MB-468, read-out: pTGI): 0.347 µM
- GI50 (MDA-MB-435; MDA-MB-435, read-out: pGI50 (converted)): 0.447 µM
- CC50 (MDA-MB-435; MDA-MB-435, read-out: pLC50 (converted)): 4.9 µM
- TGI (MDA-MB-435; MDA-MB-435, read-out: pTGI): 1.66 µM
- GI50 (cells [2]; read-out: pGI50 (converted)): 0.275 µM
- TGI (cells [2]; read-out: pTGI): 1 µM
- GI50 (NCI/ADR-RES; read-out: pGI50 (converted)): 0.617 µM
- TGI (NCI/ADR-RES; read-out: pTGI): 2.45 µM
- GI50 (TK-10; TK-10, read-out: pGI50 (converted)): 1 µM
- CC50 (TK-10; TK-10, read-out: pLC50 (converted)): 5.62 µM
- TGI (TK-10; TK-10, read-out: pTGI): 2.4 µM
- GI50 (RXF 393; RXF 393, read-out: pGI50 (converted)): 0.174 µM
- CC50 (RXF 393; RXF 393, read-out: pLC50 (converted)): 0.692 µM
- TGI (RXF 393; RXF 393, read-out: pTGI): 0.347 µM
- GI50 (A498; A498, read-out: pGI50 (converted)): 0.178 µM
- CC50 (A498; A498, read-out: pLC50 (converted)): 2.14 µM
- TGI (A498; A498, read-out: pTGI): 0.537 µM
- GI50 (786-0; 786-0, read-out: pGI50 (converted)): 0.457 µM
- CC50 (786-0; 786-0, read-out: pLC50 (converted)): 5.5 µM
- TGI (786-0; 786-0, read-out: pTGI): 1.7 µM
- pKa (physchem): 10

— ChEMBL document CHEMBL1287680, “C-11 diamino cryptolepine derivatives NSC748392, NSC748393, and NSC748394: anticancer profile and G-quadruplex stabilization” (Bioorg Med Chem Lett, 2010)
